The source of these data is patent publication US20240190890A1, “MK2 INHIBITORS AND USES THEREOF” (Bristol-Myers Squibb Company, priority 2022, published 2024).

Sequence of p38a activated, mitogen-activated protein kinase-activated protein kinase 2 (MAPKAP-K2 or MK2) enzyme (P49137 whole entry): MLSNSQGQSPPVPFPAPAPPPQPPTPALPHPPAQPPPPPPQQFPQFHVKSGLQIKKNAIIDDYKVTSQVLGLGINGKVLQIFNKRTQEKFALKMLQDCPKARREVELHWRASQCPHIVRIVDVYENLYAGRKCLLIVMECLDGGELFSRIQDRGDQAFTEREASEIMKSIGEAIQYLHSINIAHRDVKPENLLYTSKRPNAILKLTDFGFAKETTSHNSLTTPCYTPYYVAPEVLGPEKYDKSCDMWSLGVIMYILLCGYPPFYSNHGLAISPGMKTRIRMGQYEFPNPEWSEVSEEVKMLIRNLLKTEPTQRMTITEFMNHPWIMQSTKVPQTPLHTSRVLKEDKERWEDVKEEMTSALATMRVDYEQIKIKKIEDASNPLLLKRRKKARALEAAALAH

The target of the experiment is p38a activated, mitogen-activated protein kinase-activated protein kinase 2 (MAPKAP-K2 or MK2) enzyme (Homo sapiens (Human), UniProt P49137). Nature of the experiment: MK2 Omnia continuous-read kinase assay for compound potency. The experiment is classed as biochemical. The conditions noted are these: [MK-2]=0.4 nM, [ATP]=10 μM, [ST3-Sox]=10 μM; room temperature. Summed up:
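p38a-activated MK2 (0.4 nM) with 10 μM ATP (apparent Km) and 10 μM S/T3-Sox peptide in Tris pH 7.5 buffer with MgCl2, EGTA and DTT. Fluorescence (ex360/em485) read continuously for 120 min at room temperature. IC50 from initial linear slopes; apparent kinact/KI from kobs of exponential progress-curve fits.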
Usually IC50 stands for the concentration that gives 50% inhibition. As for `C[C@@H]1CNc2c(sc3ccc4nc(-n5ccnc5C#N)ccc4c23)C(=O)N1` [Example I-246, (R)-1-(10-methyl-8-oxo-9,10,11,12-tetrahydro-8H-[1,4]diazepino[5′,6′:4,5]thieno[3,2-f]quinolin-3-yl)-1H-imidazole-2-carbonitrile], the IC50 came out at 16 nM. As to `C=Cc1cc(-c2ccc3c(ccc4sc5c(c43)NC[C@@H](C)NC5=O)n2)c(OC(F)F)cn1` [Example I-247, (R)-3-(5-(difluoromethoxy)-2-vinylpyridin-4-yl)-10-methyl-9,10,11,12-tetrahydro-8H-[1,4]diazepino[5′,6′:4,5]thieno[3,2-f]quinolin-8-one], the IC50 amounted to 360 nM. The figure for `C=Cc1nc(C2CC2)n(-c2ccc3c(ccc4sc5c(c43)NC[C@@H](C)NC5=O)n2)n1` [Example I-248, (R)-3-(5-cyclopropyl-3-vinyl-1H-1,2,4-triazol-1-yl)-10-methyl-9,10,11,12-tetrahydro-8H-[1,4]diazepino[5′,6′:4,5]thieno[3,2-f]quinolin-8-one] is 303 nM. For `[2H]c1c(C=C)ncc(C([2H])([2H])[2H])c1-c1ccc2c(ccc3sc4c(c32)NC[C@@H](C)NC4=O)n1` [Example I-249, (R)-10-methyl-3-(5-(methyl-d3)-2-vinylpyridin-4-yl-3-d)-9,10,11,12-tetrahydro-8H-[1,4]diazepino[5′,6′:4,5]thieno[3,2-f]quinolin-8-one], the IC50 turned out to be 4 nM. With `C[C@@H]1CNc2c(sc3ccc4nc(-n5c(Br)nc(Cl)c5Cl)ccc4c23)C(=O)N1` [Example I-250, (R)-3-(2-bromo-4,5-dichloro-1H-imidazol-1-yl)-10-methyl-9,10,11,12-tetrahydro-8H-[1,4]diazepino[5′,6′:4,5]thieno[3,2-f]quinolin-8-one] the figure was 580 nM; with `C=Cc1nc(Cl)c(Cl)n1-c1ccc2c(ccc3sc4c(c32)NC[C@@H](C)NC4=O)n1` [Example I-251, (R)-3-(4,5-dichloro-2-vinyl-1H-imidazol-1-yl)-10-methyl-9,10,11,12-tetrahydro-8H-[1,4]diazepino[5′,6′:4,5]thieno[3,2-f]quinolin-8-one], 192 nM; with `C=Cc1cc(-c2ccc3c(ccc4sc5c(c43)NC[C@@H](C)NC5=O)n2)c(CO)cn1` [Example I-252, (R)-3-(5-(hydroxymethyl)-2-vinylpyridin-4-yl)-10-methyl-9,10,11,12-tetrahydro-8H-[1,4]diazepino[5′,6′:4,5]thieno[3,2-f]quinolin-8-one], 5 nM. The figure for `C=Cc1cc(-c2ccc3c(ccc4sc5c(c43)NC[C@@H](C)NC5=O)n2)c(COC)cn1` [Example I-253, (R)-3-(5-(methoxymethyl)-2-vinylpyridin-4-yl)-10-methyl-9,10,11,12-tetrahydro-8H-[1,4]diazepino[5′,6′:4,5]thieno[3,2-f]quinolin-8-one] is 6 nM; for `C=Cc1cc(-c2ccc3c(ccc4sc5c(c43)NC[C@@H](CF)NC5=O)n2)c(C)cn1` [Example I-254, (S)-10-(fluoromethyl)-3-(5-methyl-2-vinylpyridin-4-yl)-9,10,11,12-tetrahydro-8H-[1,4]diazepino[5′,6′:4,5]thieno[3,2-f]quinolin-8-one] it is 27 nM; for `C=Cc1nccn1-c1ccc2c(ccc3sc4c(c32)NC[C@@H](CF)NC4=O)n1` [Example I-255, (S)-10-(fluoromethyl)-3-(2-vinyl-1H-imidazol-1-yl)-9,10,11,12-tetrahydro-8H-[1,4]diazepino[5′,6′:4,5]thieno[3,2-f]quinolin-8-one] it is 1 nM.

On to `C=Cc1cc(-c2ccc3c(ccc4sc5c(c43)NC[C@@H](C)NC5=O)n2)c(OC)cn1` [Example I-256, (R)-3-(5-methoxy-2-vinylpyridin-4-yl)-10-methyl-9,10,11,12-tetrahydro-8H-[1,4]diazepino[5′,6′:4,5]thieno[3,2-f]quinolin-8-one], for which the IC50 is 20 nM. With `C=Cc1cc(C(F)(F)F)n(-c2ccc3c(ccc4sc5c(c43)NC[C@@H](C)NC5=O)n2)n1` [Example I-257, (R)-10-methyl-3-(5-(trifluoromethyl)-3-vinyl-1H-pyrazol-1-yl)-9,10,11,12-tetrahydro-8H-[1,4]diazepino[5′,6′:4,5]thieno[3,2-f]quinolin-8-one] the figure was 1000 nM; with `[2H]C([2H])([2H])C(O)(c1cnc(C=C)cc1-c1ccc2c(ccc3sc4c(c32)NC[C@@H](C)NC4=O)n1)C([2H])([2H])[2H]` [Example I-258, (R)-3-(5-(2-hydroxypropan-2-yl-1,1,1,3,3,3-d6)-2-vinylpyridin-4-yl)-10-methyl-9,10,11,12-tetrahydro-8H-[1,4]diazepino[5′,6′:4,5]thieno[3,2-f]quinolin-8-one], 1000 nM. In the case of `[2H]C([2H])([2H])C(O)c1cnc(C=C)cc1-c1ccc2c(ccc3sc4c(c32)NC[C@@H](C)NC4=O)n1` (stereo partly drawn) [Example I-259, (10R)-3-(5-(1-hydroxyethyl-2,2,2-d3)-2-vinylpyridin-4-yl)-10-methyl-9,10,11,12-tetrahydro-8H-[1,4]diazepino[5′,6′:4,5]thieno[3,2-f]quinolin-8-one], the IC50 came to 15 nM. Take `[2H]C([2H])([2H])C(O)c1cnc(C=C)cc1-c1ccc2c(ccc3sc4c(c32)NC[C@@H](C)NC4=O)n1` (stereo partly drawn) [Example I-260, (10R)-3-(5-(1-hydroxyethyl-2,2,2-d3)-2-vinylpyridin-4-yl)-10-methyl-9,10,11,12-tetrahydro-8H-[1,4]diazepino[5′,6′:4,5]thieno[3,2-f]quinolin-8-one]: the IC50 turned out to be 16 nM. As for `C=Cc1nc(C)n(-c2ccc3c(ccc4sc5c(c43)NC[C@@H](C)NC5=O)n2)n1` [Example I-261, (R)-10-methyl-3-(5-methyl-3-vinyl-1H-1,2,4-triazol-1-yl)-9,10,11,12-tetrahydro-8H-[1,4]diazepino[5′,6′:4,5]thieno[3,2-f]quinolin-8-one], the IC50 came out at 1000 nM. Consider `C=Cc1cc(-c2ccc3c(ccc4sc5c(c43)NC[C@@H](C)NC5=O)n2)c(COCC)cn1` [Example I-262, (R)-3-(5-(ethoxymethyl)-2-vinylpyridin-4-yl)-10-methyl-9,10,11,12-tetrahydro-8H-[1,4]diazepino[5′,6′:4,5]thieno[3,2-f]quinolin-8-one], for which the IC50 stood at 35 nM.

As for `C=Cc1cc(-c2ccc3c(ccc4sc5c(c43)NC[C@@H](C)NC5=O)n2)c(CN2CC3(COC3)C2)cn1` [Example I-263, (R)-3-(5-((2-oxa-6-azaspiro[3.3]heptan-6-yl)methyl)-2-vinylpyridin-4-yl)-10-methyl-9,10,11,12-tetrahydro-8H-[1,4]diazepino[5′,6′:4,5]thieno[3,2-f]quinolin-8-one], the IC50 came to 47 nM. With `C/C=C/c1cc(-c2ccc3c(ccc4sc5c(c43)NC[C@@H](C)NC5=O)n2)c(C)cn1` [Example I-265, (R,E)-10-methyl-3-(5-methyl-2-(prop-1-en-1-yl)pyridin-4-yl)-9,10,11,12-tetrahydro-8H-[1,4]diazepino[5′,6′:4,5]thieno[3,2-f]quinolin-8-one] the figure was 210 nM.

`Cc1cnc(CC#N)cc1-c1ccc2c(ccc3sc4c(c32)NC[C@@H](C)NC4=O)n1` [Example I-267, (R)-2-(5-methyl-4-(10-methyl-8-oxo-9,10,11,12-tetrahydro-8H-[1,4]diazepino[5′,6′:4,5]thieno[3,2-f]quinolin-3-yl)pyridin-2-yl)acetonitrile]: the IC50 worked out at 1000 nM.
